Reference: ChEMBL document CHEMBL1201862, “PubChem BioAssay data set” (2004)
Calls of active or inactive are those of the source.

Experiments:
Hexokinase-1 = Hexokinase-1 (Homo sapiens, UniProt P19367); assay: HK1 enzyme inhibition by HKDC1 hits, SAR follow-up, selectivity assay for HKDC1 inhibitor project, biochemical, set 2, resazurin fluorescence coupled readout (AID 588356); assay type: functional
Hexokinase HKDC1 = Hexokinase HKDC1 (Homo sapiens, UniProt Q2TB90); assay: HKDC1 hexokinase inhibitors, SAR follow-up, biochemical, set 2 (AID 588355); assay type: functional
[1] = target: Glycogen synthase kinase-3 beta (Homo sapiens, UniProt P49841); assay: Inhibition of Human GSK-3 beta Activity Measured in Biochemical System Using Microfluidics - 2063-05_Inhibitor_Dose_DryPowder_Activity. [Related pubchem assays (depositor defined):AID2709]
[2] = target: Glycogen synthase kinase-3 alpha (Homo sapiens, UniProt P49840); assay: Inhibition of Human GSK-3 alpha Activity Measured in Biochemical System Using Microfluidics - 2063-06_Inhibitor_Dose_DryPowder_Activity. [Related pubchem assays (depositor defined):AID2709]
[3] = growth induction of Burl-1 ts yeast mutant, dose response, counter-screen for SUMOylation pathway inhibitor project, whole organism, S. cerevisiae, luminescence (AID 463199); assay type: functional
[4] = target: RNA-editing ligase 1, mitochondrial (Trypanosoma brucei brucei, UniProt P86926); assay: TbREL1 ligase inhibitors, dose response, biochemical, fluorescence, Trypanosoma brucei (AID 1117295); assay type: functional
[5] = target: T1, Carboxy-terminal domain RNA polymerase II polypeptide A small phosphatase 1 (Homo sapiens, UniProt Q9GZU7); assay: inhibitors of CTDSP1, concentration-response testing, biochemical assay, absorbance-based, actives from ultra-high-throughput screening (AID 540297); assay type: functional
T1 sequence (Q9GZU7 whole entry): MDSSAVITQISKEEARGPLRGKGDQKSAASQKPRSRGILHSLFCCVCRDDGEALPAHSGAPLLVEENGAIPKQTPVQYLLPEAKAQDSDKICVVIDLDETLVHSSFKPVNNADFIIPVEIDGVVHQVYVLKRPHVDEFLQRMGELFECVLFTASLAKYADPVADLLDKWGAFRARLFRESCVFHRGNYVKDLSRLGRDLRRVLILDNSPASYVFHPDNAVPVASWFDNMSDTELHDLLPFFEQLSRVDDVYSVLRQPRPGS

[6] = target: T2, Fructose-bisphosphate aldolase (Mycobacterium tuberculosis, UniProt P9WQA3); assay: Fluorescence-based biochemical high throughput dose response assay for inhibitors of the fructose-bisphosphate aldolase (FBA) of M. tuberculosis.; assay type: functional
T2 sequence (P9WQA3 whole entry): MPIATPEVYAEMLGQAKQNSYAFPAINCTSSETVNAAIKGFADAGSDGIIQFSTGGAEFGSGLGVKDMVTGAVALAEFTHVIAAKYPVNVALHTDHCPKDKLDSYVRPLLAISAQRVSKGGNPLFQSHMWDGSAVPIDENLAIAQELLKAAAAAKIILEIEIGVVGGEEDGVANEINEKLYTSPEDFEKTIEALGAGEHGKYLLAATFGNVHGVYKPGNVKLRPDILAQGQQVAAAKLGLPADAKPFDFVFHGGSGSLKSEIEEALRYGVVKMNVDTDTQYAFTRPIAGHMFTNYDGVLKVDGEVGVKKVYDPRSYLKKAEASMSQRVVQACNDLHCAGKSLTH

[7] = target: NAD-dependent protein deacylase sirtuin-5, mitochondrial (Homo sapiens, UniProt Q9NXA8); assay: SIRT5 desuccinylase inhibitors, dose response, biochemical, fluorescence imaging, cherry-pick, set 5 (AID 720591);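 further: desuccinylation of succinyl peptide AMC substrate read as fluorescence after trypsin release; potency of inhibitors that lower fluorescence and may act on trypsin instead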
[8] = target: T3, Corticotropin-releasing factor receptor 2/Corticotropin-releasing factor-binding protein (Homo sapiens, UniProt P24387+Q13324); assay: activators of CRF receptor 2 with binding protein – uHTS hits, confirmation (AID 602473); assay type: functional; settings: read-out: EC50_Mean
T3 sequence (Q13324 whole entry): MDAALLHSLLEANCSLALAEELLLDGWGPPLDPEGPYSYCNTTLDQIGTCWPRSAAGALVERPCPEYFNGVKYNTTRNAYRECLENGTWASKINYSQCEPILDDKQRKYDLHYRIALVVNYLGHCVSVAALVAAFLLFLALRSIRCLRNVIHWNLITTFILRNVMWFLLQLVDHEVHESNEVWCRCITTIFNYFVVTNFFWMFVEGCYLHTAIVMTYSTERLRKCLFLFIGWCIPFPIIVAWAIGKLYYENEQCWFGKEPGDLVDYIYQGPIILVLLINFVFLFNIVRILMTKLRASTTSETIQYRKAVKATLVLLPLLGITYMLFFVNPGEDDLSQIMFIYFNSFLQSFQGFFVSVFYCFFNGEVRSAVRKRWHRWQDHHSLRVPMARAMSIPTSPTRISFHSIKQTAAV
T3 sequence (P24387 whole entry): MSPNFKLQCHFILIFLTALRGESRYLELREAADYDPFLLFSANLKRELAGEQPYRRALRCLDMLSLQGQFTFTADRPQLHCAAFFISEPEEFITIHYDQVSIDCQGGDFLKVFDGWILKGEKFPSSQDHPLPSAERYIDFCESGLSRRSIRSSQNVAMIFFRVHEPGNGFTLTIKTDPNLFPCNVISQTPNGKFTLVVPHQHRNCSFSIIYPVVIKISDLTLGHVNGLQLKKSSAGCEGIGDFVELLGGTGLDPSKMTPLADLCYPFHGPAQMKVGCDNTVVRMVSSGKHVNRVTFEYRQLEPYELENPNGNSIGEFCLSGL

Keap1/Nrf2 = Keap1/Nrf2 (Homo sapiens, UniProt Q14145); assay: Keap1-Nrf2 protein-protein interaction inhibitors, dose response, biochemical, fluorescence polarization, cherry-picked samples (AID 588683)
CAAX prenyl protease 2 = CAAX prenyl protease 2 (Saccharomyces cerevisiae S288c, UniProt Q03530); assay: yeast Rce1 CaaX protease inhibitors, dose response, biochemical, plate reader, dry powder retest (AID 588851)
[9] = mammalian cell cytotoxicity, dose response, cytotoxicity control, plate reader, cherry-pick samples (AID 504397); assay type: functional, cell-based
[10] = target: Dual specificity protein kinase CLK1 (Homo sapiens, UniProt P49759); assay: CLK1 kinase inhibitors, off-target check, dose response, selectivity assay for Dyrk1A inhibitor project, biochemical, cherry-picked samples (AID 588811)
[11] = target: ATP-dependent molecular chaperone HSP82 (Candida albicans (strain WO-1) (Yeast), UniProt C4YTQ8); assay: loss of DOC-induced GRE-beta-galactosidase reporter signal, dose response, Hsp90 inhibitor project, S. cerevisiae, luminescence (AID 2400); assay type: functional, cell-based;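 further: beta-galactosidase luminescence from glucocorticoid response element reporter as proxy for Hsp90 function; inhibitor potency where signal loss means Hsp90 inhibition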
[12] = C. albicans growth with fluconazole, confirmation, fluorescence, retest (AID 2467); assay type: functional, cell-based
[13] = target: Serine/threonine-protein phosphatase (Candida dubliniensis (strain CD36 / CBS 7987 / NCPF 3949 / NRRLY-17841) (Yeast), UniProt B9W6M3); assay: calcineurin pathway inhibitors in yeast reporter, dose response, S. cerevisiae, CDRE-lacZ, luminescence, secondary (AID 2388); assay type: functional, cell-based;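 further: yeast reporter cells carrying a calcineurin-responsive lacZ construct stimulated with calcium chloride; luminescent beta-galactosidase reporter signal in whole cells rather than isolated phosphatase activity; potency for inhibition where a drop in reporter signal means calcineurin blockade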
[14] = NIH-3T3 fibroblast cytotoxicity, dose response, cytotoxicity control, cell-based, fluorescence, Alamar Blue, secondary assay (AID 2327); assay type: functional;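 further: NIH-3T3 mouse fibroblasts cultured with fluconazole at 8 µg/mL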
[15] = target: Benomyl/methotrexate resistance protein (Candida albicans, UniProt P28873); assay: CaMdr1 efflux pump inhibitor potency, dose response, singleplex, Cherry Pick2 set (AID 623992); assay type: functional; settings: read-out: EC50_MICROM
[16] = target: Multidrug resistance protein CDR1 (Candida albicans, UniProt P43071); assay: CaCDR1 efflux pump inhibitors in yeast, dose response, S. cerevisiae AD1-8u, singleplex, Cherry Pick1 hits (AID 588606); assay type: functional
HEK293 [17] = assay: NOD1 signaling inhibitors, primary screen, cell-based, luminescence, uHTS (AID 1578); assay type: functional; settings: Homo sapiens
[18] = target: Nucleotide-binding oligomerization domain-containing protein 1 (Homo sapiens, UniProt Q9Y239); assay: NOD1 signaling inhibitors, SAR follow-up, revised (AID 2333); assay type: functional
HEK293 [19] = assay: cells; assay type: functional, cell-based; settings: Homo sapiens
HEK293 [20] = assay: cells; assay type: functional, cell-based; settings: Homo sapiens; remark: listed apart in the source
HEK293 [21] = assay: NOD2 signaling inhibitors in MDP-stimulated cells, cell-based, uHTS, luminescence (AID 2001); assay type: functional; settings: Homo sapiens
HEK293 [22] = assay: cells; settings: Homo sapiens
Tumor necrosis factor = Tumor necrosis factor (Homo sapiens, UniProt P01375); assay: TNFa-triggered NF-kB activation inhibitors, SAR follow-up, cell-based, revised (AID 2337); assay type: functional
[23] = target: Dual specificity protein phosphatase 6 (Rattus norvegicus, UniProt Q64346); assay type: functional;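 further: confirmatory in vitro dose-response testing of MKP-3 inhibition; recombinant His-tagged MKP-3 made in E. coli BL21 with OMFP substrate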
[24] = target: Dual specificity protein phosphatase 3 (Homo sapiens, UniProt P51452); assay: SAR VHR1 Fluorescent Assay for In Vitro dose response studies Set 2. [Related pubchem assays (depositor defined):AID1654, AID1661, AID1878]; assay type: functional
Jurkat [25] = assay: antigen receptor-induced NF-kB inhibitors, dose response, Jurkat, luciferase reporter, luminescence, B- and T-cell (AID 489004); assay type: functional, cell-based; settings: Homo sapiens;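 further: NF-kB luciferase reporter Jurkat cells stimulated with PMA plus ionomycin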
[26] = cytotoxicity in HEK-293T NF-kB-Luc cells, dose response, cytotoxicity control for B/T-cell NF-kB inhibitor project, cell-based, uHTS hits (AID 489019); assay type: functional;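 further: IC50 reflects cytotoxicity as loss of cell viability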
[27] = Luminescence Cell-Based Dose Response HTS to Identify Inhibitors of 5'UTR Stem-Loop Driven Prion Protein mRNA Translation in H4 Neuroglioblastoma Cells. [Related pubchem assays: 1827 (Project Summary), 1813 (Primary HTS)]; assay type: functional
HEK293 [28] = assay: cytotoxicity in HEK293T NF-kB-Luc cells, SAR follow-up, cytotoxicity control for NF-kB activator project, cell-based, resazurin fluorescence (AID 493251); assay type: functional; settings: Homo sapiens
Vero = assay: cells; assay type: functional; settings: Chlorocebus sabaeus
Jurkat [29] = assay: SAR Analysis of small molecule inhibitors of T-cell specific antigen receptor-induced NF-kB activation in a Jurkat cell line using a luminescence assay - Set 2. [Related pubchem assays (depositor defined):AID435003, AID435012, AID465]; assay type: functional, cell-based; settings: Homo sapiens
[30] = inhibitors of SNCA 5'UTR-driven reporter translation, confirmation, H4 neuroglioma cells, luminescence (AID 1988); assay type: functional, cell-based
[31] = inhibitors of firefly luciferase expression or activity, dose response, H4 neuroglioma cells, luminescence (AID 1990); assay type: functional, cell-based
HEK293 [32] = assay: SAR Analysis of small molecule inhibitors of T-cell specific antigen receptor-induced NF-kB activation in a HEK-293T cell line using a luminescence assay - Set 2. [Related pubchem assays (depositor defined):AID435003, AID435012, AID489026]; assay type: functional, cell-based; settings: Homo sapiens
INS1 = assay: beta cell apoptosis inhibitors, cytokine rescue, dose response, luminescence, retest (AID 449756); assay type: functional, cell-based; settings: Rattus norvegicus;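 further: cell death triggered by IL-1 beta plus TNF-alpha plus IFN-gamma mixture; protective hits raise ATP signal compared with cytokine alone wells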

ATP-dependent molecular chaperone HSP82, sequence (C4YTQ8 whole entry): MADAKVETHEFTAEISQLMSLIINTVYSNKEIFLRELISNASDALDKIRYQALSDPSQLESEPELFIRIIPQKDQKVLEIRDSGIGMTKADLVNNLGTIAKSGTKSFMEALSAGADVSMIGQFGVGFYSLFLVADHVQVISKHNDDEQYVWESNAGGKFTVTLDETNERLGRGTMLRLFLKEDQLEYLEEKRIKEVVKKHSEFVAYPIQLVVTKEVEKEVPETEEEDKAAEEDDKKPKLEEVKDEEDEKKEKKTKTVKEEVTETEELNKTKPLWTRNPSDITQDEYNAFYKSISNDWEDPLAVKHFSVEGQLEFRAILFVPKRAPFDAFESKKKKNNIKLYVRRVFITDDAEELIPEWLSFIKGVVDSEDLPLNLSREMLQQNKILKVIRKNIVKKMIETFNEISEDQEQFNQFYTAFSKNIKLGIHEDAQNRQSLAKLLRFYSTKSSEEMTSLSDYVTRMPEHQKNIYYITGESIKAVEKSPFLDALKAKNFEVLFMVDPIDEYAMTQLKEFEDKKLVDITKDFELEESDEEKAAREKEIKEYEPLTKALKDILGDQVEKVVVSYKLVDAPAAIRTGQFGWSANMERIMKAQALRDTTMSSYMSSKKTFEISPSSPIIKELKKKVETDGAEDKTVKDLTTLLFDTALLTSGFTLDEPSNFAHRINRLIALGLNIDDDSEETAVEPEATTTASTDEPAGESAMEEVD
Multidrug resistance protein CDR1, sequence (P43071 whole entry, looked up): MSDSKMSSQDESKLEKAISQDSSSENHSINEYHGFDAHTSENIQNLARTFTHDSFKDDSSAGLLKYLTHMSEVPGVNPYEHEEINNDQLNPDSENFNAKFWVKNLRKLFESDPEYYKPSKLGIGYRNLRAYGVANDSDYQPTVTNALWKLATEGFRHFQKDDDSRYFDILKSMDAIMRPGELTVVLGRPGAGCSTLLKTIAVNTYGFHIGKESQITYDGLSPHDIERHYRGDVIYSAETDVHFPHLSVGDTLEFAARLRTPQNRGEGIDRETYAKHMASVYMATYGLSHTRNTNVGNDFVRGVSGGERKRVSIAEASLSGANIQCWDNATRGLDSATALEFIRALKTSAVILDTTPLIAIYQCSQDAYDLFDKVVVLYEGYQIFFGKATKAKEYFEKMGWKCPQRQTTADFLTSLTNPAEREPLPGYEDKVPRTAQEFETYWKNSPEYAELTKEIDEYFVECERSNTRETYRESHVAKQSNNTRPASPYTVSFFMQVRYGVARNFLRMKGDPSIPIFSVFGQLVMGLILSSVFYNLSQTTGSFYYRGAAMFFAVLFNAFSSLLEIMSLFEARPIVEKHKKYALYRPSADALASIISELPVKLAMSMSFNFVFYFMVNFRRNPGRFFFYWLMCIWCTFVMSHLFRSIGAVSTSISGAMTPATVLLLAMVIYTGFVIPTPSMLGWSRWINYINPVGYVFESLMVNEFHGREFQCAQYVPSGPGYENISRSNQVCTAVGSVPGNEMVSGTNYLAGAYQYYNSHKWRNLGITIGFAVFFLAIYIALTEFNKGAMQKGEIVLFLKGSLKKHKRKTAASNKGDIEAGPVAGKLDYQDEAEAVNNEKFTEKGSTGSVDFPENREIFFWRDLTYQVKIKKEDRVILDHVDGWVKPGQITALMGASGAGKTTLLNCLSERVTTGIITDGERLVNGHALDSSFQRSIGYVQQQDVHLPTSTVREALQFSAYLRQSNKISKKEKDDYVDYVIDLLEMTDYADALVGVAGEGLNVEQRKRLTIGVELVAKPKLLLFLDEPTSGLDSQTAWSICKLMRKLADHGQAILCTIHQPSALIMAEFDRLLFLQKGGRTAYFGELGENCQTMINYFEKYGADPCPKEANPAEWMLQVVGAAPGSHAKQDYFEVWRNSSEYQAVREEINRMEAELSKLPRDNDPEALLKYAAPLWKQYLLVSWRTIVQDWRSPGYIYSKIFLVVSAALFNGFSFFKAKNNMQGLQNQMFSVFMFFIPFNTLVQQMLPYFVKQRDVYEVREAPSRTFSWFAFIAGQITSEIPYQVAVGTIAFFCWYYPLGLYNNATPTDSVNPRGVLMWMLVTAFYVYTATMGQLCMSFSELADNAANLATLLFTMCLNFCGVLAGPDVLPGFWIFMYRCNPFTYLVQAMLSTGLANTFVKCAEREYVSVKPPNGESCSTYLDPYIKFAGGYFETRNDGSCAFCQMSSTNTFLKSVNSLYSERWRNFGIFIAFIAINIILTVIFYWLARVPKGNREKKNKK
Serine/threonine-protein phosphatase, sequence (B9W6M3 whole entry): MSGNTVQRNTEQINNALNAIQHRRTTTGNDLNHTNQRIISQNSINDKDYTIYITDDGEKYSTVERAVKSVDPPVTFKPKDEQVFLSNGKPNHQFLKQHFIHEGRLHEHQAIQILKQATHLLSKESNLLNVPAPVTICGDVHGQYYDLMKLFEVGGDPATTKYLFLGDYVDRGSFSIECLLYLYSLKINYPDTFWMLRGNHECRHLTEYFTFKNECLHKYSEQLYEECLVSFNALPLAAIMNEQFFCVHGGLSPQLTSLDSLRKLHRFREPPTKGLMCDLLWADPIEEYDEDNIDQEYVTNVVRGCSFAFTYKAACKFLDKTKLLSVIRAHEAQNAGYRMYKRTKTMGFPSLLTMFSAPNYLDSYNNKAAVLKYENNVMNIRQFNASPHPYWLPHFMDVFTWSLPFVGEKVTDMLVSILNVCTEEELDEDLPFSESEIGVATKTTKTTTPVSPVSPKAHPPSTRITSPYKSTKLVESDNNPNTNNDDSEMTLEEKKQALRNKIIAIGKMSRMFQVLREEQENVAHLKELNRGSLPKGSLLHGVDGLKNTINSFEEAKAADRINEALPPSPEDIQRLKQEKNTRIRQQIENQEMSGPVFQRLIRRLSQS
RNA-editing ligase 1, mitochondrial, sequence (P86926 whole entry, the tested form may be a part): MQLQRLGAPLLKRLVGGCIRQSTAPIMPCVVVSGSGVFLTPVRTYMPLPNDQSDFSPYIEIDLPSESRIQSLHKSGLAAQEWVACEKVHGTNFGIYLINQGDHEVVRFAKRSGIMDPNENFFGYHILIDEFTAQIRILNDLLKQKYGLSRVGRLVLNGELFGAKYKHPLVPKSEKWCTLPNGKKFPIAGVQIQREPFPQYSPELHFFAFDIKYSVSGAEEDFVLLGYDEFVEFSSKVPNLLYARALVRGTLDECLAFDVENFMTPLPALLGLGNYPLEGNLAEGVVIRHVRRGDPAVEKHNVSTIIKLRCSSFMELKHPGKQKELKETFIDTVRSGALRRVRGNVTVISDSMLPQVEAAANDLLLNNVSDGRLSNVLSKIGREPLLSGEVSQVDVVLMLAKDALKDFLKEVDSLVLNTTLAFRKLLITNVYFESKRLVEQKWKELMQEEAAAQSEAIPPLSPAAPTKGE
Glycogen synthase kinase-3 alpha, sequence (P49840 whole entry): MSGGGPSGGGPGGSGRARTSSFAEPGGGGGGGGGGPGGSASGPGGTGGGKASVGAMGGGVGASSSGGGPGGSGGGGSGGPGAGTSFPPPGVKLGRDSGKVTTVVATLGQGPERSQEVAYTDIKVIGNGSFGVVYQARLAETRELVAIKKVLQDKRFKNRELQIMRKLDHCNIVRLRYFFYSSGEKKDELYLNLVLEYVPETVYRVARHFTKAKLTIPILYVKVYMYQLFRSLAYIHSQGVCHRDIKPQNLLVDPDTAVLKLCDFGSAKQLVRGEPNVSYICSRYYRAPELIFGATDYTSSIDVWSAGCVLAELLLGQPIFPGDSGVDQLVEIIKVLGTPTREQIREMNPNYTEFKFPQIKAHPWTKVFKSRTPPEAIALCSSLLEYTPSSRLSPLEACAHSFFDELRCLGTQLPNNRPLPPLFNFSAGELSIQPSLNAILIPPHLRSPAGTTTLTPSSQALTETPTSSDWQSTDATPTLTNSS
Hexokinase-1, sequence (P19367 whole entry): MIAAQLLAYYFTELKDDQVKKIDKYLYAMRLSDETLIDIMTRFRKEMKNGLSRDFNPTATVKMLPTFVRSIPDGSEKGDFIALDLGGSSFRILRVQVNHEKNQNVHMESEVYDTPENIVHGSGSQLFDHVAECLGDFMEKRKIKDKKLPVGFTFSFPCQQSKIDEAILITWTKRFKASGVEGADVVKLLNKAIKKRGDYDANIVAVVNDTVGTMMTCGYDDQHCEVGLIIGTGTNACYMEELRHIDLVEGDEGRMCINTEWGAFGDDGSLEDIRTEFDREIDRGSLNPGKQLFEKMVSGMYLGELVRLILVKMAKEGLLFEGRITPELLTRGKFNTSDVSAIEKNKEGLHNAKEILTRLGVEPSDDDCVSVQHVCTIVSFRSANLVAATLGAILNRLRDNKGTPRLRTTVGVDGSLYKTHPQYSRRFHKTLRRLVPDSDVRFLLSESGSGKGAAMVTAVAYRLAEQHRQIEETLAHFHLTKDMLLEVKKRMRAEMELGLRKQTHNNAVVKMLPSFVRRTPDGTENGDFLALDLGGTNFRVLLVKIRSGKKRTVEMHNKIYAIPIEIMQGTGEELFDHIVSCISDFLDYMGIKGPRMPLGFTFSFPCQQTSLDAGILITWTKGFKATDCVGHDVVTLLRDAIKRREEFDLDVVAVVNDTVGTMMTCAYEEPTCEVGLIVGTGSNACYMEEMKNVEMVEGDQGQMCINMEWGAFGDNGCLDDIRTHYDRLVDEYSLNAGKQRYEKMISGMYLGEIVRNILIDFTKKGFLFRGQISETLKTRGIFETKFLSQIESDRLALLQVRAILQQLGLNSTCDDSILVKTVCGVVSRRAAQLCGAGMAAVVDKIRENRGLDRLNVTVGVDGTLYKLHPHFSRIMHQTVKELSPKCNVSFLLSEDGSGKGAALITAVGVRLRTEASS
Dual specificity protein phosphatase 3, sequence (P51452 whole entry): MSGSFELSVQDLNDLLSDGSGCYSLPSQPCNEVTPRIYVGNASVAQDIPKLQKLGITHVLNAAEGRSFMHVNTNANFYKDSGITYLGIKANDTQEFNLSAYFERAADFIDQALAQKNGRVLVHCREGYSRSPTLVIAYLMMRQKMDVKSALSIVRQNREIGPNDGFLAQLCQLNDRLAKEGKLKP

## O=C(O)C(c1ccccc1)N1C(=O)c2ccccc2C1=O (centres undefined)
Hexokinase-1
  IC50: > 80 µM (inactive)
Hexokinase HKDC1
  IC50: > 80 µM (inactive)

## Nc1nc(Nc2cccc(F)c2)nc(NCCO)c1[N+](=O)[O-]
[1]
  AC50: 0.228 µM (active)
[2]
  AC50: 0.953 µM (active)

## CCCSc1nnc(NC(=O)CSc2sc3c(O)cc(O)nc3c2C#N)s1
[3]
  AC50: 106 µM (active)
[4]
  IC50: 50.7 µM (inactive)
[5]
  IC50: 3.46 µM (active)
[6]
  IC50: > 9.99 µM (inactive)
[7]
  AC50: > 30 µM (inactive)

## CCN(CC)S(=O)(=O)c1ccc(C(=O)OCCN2C(=O)c3cccc4c(N5CCOCC5)ccc(c34)C2=O)cc1
[8]
  EC50: 6.47 µM (active)
Keap1/Nrf2
  AC50: 13.9 µM (active)

## Cc1cc(N2CCN(C(c3ccccc3)c3ccccc3)CC2)n2ncnc2n1
CAAX prenyl protease 2
  AC50: 7.39 µM (active)
[9]
  AC50: 159 µM (active)

## CCCNc1ncnc2ccc(-c3ccc4c(c3)OCO4)cc12
[10]
  AC50: 0.00314 µM (active)

## O=[N+]([O-])c1cc(Cl)c2cccnc2c1O
[11]
  EC50: 3.67 µM (active)
[12]
  EC50: 0.084 µM (active)
[13]
  EC50: > 180 µM (inactive)
[14]
  EC50: 11.1 µM (active)

## CCO[C@@H]1OC(C(=O)Nc2ccccc2)=C[C@H](c2ccc(Br)cc2)[C@H]1CCCO
[15]
  EC50: 25.2 µM (active)
[16]
  EC50: 11.7 µM (active)

## NC(=O)c1ccc(N2CCN(S(=O)(=O)c3ccccc3)CC2)c([N+](=O)[O-])c1
HEK293 [17]
  EC50: 4.72 µM (active)
[18]
  IC50: 5.86 µM (active)
HEK293 [19]
  IC50: > 20 µM (inactive)
HEK293 [20]
  IC50: 16 µM (active)
HEK293 [21]
  IC50: > 20 µM (inactive)
HEK293 [22]
  IC50: > 20 µM (inactive)
Tumor necrosis factor
  IC50: > 20 µM (inactive)

## COc1ccc(C(=O)NC2CCSc3ccccc32)cc1S(N)(=O)=O (centres undefined)
[23]
  IC50: > 100 µM (inactive)
[24]
  IC50: > 100 µM (inactive)

## Cc1cc(Cl)c(S(=O)(=O)N2CCCCCC2)cc1OCC(=O)NC1CCCCC1
Jurkat [25]
  IC50: > 80 µM (inactive)
[26]
  IC50: > 80 µM (inactive)

## CCN1CCN(c2c(Cl)cccc2NC(=O)c2ccc([N+](=O)[O-])o2)CC1
[27]
  EC50: > 120 µM (not active)
HEK293 [28]
  IC50: 18.7 µM (active)
Vero
  CC50: 23.4 µM (active)
Jurkat [29]
  IC50: 10.6 µM (active)
[30]
  EC50: 11.1 µM (active)
[31]
  EC50: 10.6 µM (active)
HEK293 [32]
  IC50: 17.9 µM (active)
INS1
  AC50: 3.68 µM (active)
